Columns and labels:
[1] = system: K562; assay: Anticancer activity against human K562 cells assessed as cell growth inhibition measured after 48 hrs by MTT assay; assay type: functional, cell-based
[2] = system: PC-3; assay: Anticancer activity against human PC3 cells assessed as cell growth inhibition measured after 48 hrs by MTT assay; assay type: functional, cell-based
[3] = system: HCT-15; assay: Anticancer activity against human HCT15 cells assessed as cell growth inhibition measured after 48 hrs by MTT assay; assay type: functional, cell-based
[4] = system: MCF7; assay: Anticancer activity against human MCF7 cells assessed as cell growth inhibition measured after 48 hrs by MTT assay; assay type: functional, cell-based
[5] = system: COS-7; assay: Cytotoxicity against African green monkey COS7 cells assessed as cell growth inhibition measured after 48 hrs by MTT assay; assay type: cell-based, Chlorocebus aethiops
[6] = system: SK-LU-1; assay: Anticancer activity against human SKLU1 cells assessed as cell growth inhibition measured after 48 hrs by MTT assay; assay type: functional, cell-based
[7] = system: U-251; assay: Anticancer activity against human U251 cells assessed as cell growth inhibition measured after 48 hrs by MTT assay; assay type: functional, cell-based
[8] = Homo sapiens, K562, 48 h, read-out: IC50
[9] = Homo sapiens, PC-3, 48 h, read-out: IC50
[10] = Homo sapiens, HCT-15, 48 h, read-out: IC50
[11] = Homo sapiens, MCF7, 48 h, read-out: IC50
[12] = Chlorocebus aethiops, COS-7, 48 h, read-out: IC50
[13] = Homo sapiens, SK-LU-1, 48 h, read-out: IC50
[14] = Homo sapiens, U-251, 48 h, read-out: IC50

**Q.** `O=C(O)CCCc1ccc(N(CCCl)CCCl)cc1` [CHLORAMBUCIL] was tested. Which IC50 [1, 8] did it give?
**A.** 103 µM

**Q.** What about the IC50 [2, 9] of the same compound?
**A.** 16.4 µM

**Q.** And the IC50 [3, 10]?
**A.** 3.11 µM

**Q.** What about the IC50 [4, 11] of the same compound?
**A.** > 100 µM

**Q.** And the IC50 [5, 12]?
**A.** 43.5 µM

**Q.** And the IC50 [6, 13]?
**A.** 300 µM

**Q.** What about the IC50 [7, 14] of the same compound?
**A.** 33.1 µM

**Q.** Which results are given for `Oc1cc(O)c(C(c2ccc(C(c3cc(Cl)c(O)cc3O)c3cc(Cl)c(O)cc3O)cc2)c2cc(Cl)c(O)cc2O)cc1Cl`?
**A.** IC50 ([1]; k562): Not Active; IC50 ([2]; pc-3): Not Active; IC50 ([3]; hct-15): Not Active; IC50 ([4]; mcf7): Not Active; IC50 ([5]; cos-7): Not Active; IC50 ([6]; sk-lu-1): Not Active; IC50 ([7]; u-251): Not Active

**Q.** How did the IC50 [1, 8] turn out when `CC(C)Cc1ccc(C(C)C(=O)O)cc1` (configuration not stated) [IBUPROFEN] was run?
**A.** > 1000 µM

**Q.** And the IC50 [2, 9]?
**A.** > 1000 µM

**Q.** And the IC50 [3, 10]?
**A.** > 1000 µM

**Q.** And the IC50 [4, 11]?
**A.** 92.1 µM

**Q.** And the IC50 [5, 12]?
**A.** > 1000 µM

**Q.** What about the IC50 [6, 13] of the same compound?
**A.** 90.6 µM

**Q.** And the IC50 [7, 14]?
**A.** > 1000 µM

**Q.** With `COc1ccc2cc([C@H](C)C(=O)OCCNC(=O)COc3cc(OCC(=O)NCCOC(=O)[C@@H](C)c4ccc5cc(OC)ccc5c4)c(C(c4ccc(C(c5cc(Cl)c(OCC(=O)NCCOC(=O)[C@@H](C)c6ccc7cc(OC)ccc7c6)cc5OCC(=O)NCCOC(=O)[C@@H](C)c5ccc6cc(OC)ccc6c5)c5cc(Cl)c(OCC(=O)NCCOC(=O)[C@@H](C)c6ccc7cc(OC)ccc7c6)cc5OCC(=O)NCCOC(=O)[C@@H](C)c5ccc6cc(OC)ccc6c5)cc4)c4cc(Cl)c(OCC(=O)NCCOC(=O)[C@@H](C)c5ccc6cc(OC)ccc6c5)cc4OCC(=O)NCCOC(=O)[C@@H](C)c4ccc5cc(OC)ccc5c4)cc3Cl)ccc2c1` as the compound, how does the IC50 [1, 8] read?
**A.** > 1000 µM

**Q.** And the IC50 [2, 9]?
**A.** > 1000 µM

**Q.** And the IC50 [3, 10]?
**A.** > 1000 µM

**Q.** What about the IC50 [4, 11] of the same compound?
**A.** > 1000 µM

**Q.** And the IC50 [5, 12]?
**A.** > 1000 µM

**Q.** What about the IC50 [6, 13] of the same compound?
**A.** > 1000 µM

**Q.** What about the IC50 [7, 14] of the same compound?
**A.** 50.3 µM

**Q.** Which IC50 ([1]; k562) does the source give for `COC(=O)COc1cc(OCC(=O)OC)c(C(c2ccc(C(c3cc(Cl)c(OCC(=O)OC)cc3OCC(=O)OC)c3cc(Cl)c(OCC(=O)OC)cc3OCC(=O)OC)cc2)c2cc(Cl)c(OCC(=O)OC)cc2OCC(=O)OC)cc1Cl` here?
**A.** Not Active

**Q.** And the IC50 ([2]; pc-3)?
**A.** Not Active

**Q.** And the IC50 ([3]; hct-15)?
**A.** Not Active

**Q.** And the IC50 ([4]; mcf7)?
**A.** Not Active

**Q.** What about the IC50 ([5]; cos-7) of the same compound?
**A.** Not Active

**Q.** And the IC50 ([6]; sk-lu-1)?
**A.** Not Active

**Q.** And the IC50 ([7]; u-251)?
**A.** Not Active

**Q.** With `CC(C)Cc1ccc(C(C)C(=O)OCCNC(=O)COc2cc(OCC(=O)NCCOC(=O)C(C)c3ccc(CC(C)C)cc3)c(C(c3ccc(C(c4cc(Cl)c(OCC(=O)NCCOC(=O)C(C)c5ccc(CC(C)C)cc5)cc4OCC(=O)NCCOC(=O)C(C)c4ccc(CC(C)C)cc4)c4cc(Cl)c(OCC(=O)NCCOC(=O)C(C)c5ccc(CC(C)C)cc5)cc4OCC(=O)NCCOC(=O)C(C)c4ccc(CC(C)C)cc4)cc3)c3cc(Cl)c(OCC(=O)NCCOC(=O)C(C)c4ccc(CC(C)C)cc4)cc3OCC(=O)NCCOC(=O)C(C)c3ccc(CC(C)C)cc3)cc2Cl)cc1` (configuration not stated) as the compound, how does the IC50 [1, 8] read?
**A.** > 1000 µM

**Q.** What about the IC50 [2, 9] of the same compound?
**A.** > 1000 µM

**Q.** What about the IC50 [3, 10] of the same compound?
**A.** > 1000 µM

**Q.** And the IC50 [4, 11]?
**A.** > 1000 µM

**Q.** What about the IC50 [5, 12] of the same compound?
**A.** > 1000 µM

**Q.** What about the IC50 [6, 13] of the same compound?
**A.** > 1000 µM

**Q.** What about the IC50 [7, 14] of the same compound?
**A.** > 1000 µM

**Q.** With `COc1ccc2c(c1)c(CC(=O)OCCNC(=O)COc1cc(OCC(=O)NCCOC(=O)Cc3c(C)n(C(=O)c4ccc(Cl)cc4)c4ccc(OC)cc34)c(C(c3ccc(C(c4cc(Cl)c(OCC(=O)NCCOC(=O)Cc5c(C)n(C(=O)c6ccc(Cl)cc6)c6ccc(OC)cc56)cc4OCC(=O)NCCOC(=O)Cc4c(C)n(C(=O)c5ccc(Cl)cc5)c5ccc(OC)cc45)c4cc(Cl)c(OCC(=O)NCCOC(=O)Cc5c(C)n(C(=O)c6ccc(Cl)cc6)c6ccc(OC)cc56)cc4OCC(=O)NCCOC(=O)Cc4c(C)n(C(=O)c5ccc(Cl)cc5)c5ccc(OC)cc45)cc3)c3cc(Cl)c(OCC(=O)NCCOC(=O)Cc4c(C)n(C(=O)c5ccc(Cl)cc5)c5ccc(OC)cc45)cc3OCC(=O)NCCOC(=O)Cc3c(C)n(C(=O)c4ccc(Cl)cc4)c4ccc(OC)cc34)cc1Cl)c(C)n2C(=O)c1ccc(Cl)cc1` as the compound, how does the IC50 [1, 8] read?
**A.** > 1000 µM

**Q.** And the IC50 [2, 9]?
**A.** > 1000 µM

**Q.** And the IC50 [3, 10]?
**A.** > 1000 µM

**Q.** And the IC50 [4, 11]?
**A.** > 1000 µM

**Q.** And the IC50 [5, 12]?
**A.** > 1000 µM

**Q.** And the IC50 [6, 13]?
**A.** > 1000 µM

**Q.** And the IC50 [7, 14]?
**A.** 23.1 µM

**Q.** With `COc1ccc2cc([C@H](C)C(=O)O)ccc2c1` [NAPROXEN] as the compound, how does the IC50 [1, 8] read?
**A.** 181 µM

**Q.** And the IC50 [2, 9]?
**A.** > 1000 µM

**Q.** What about the IC50 [3, 10] of the same compound?
**A.** > 1000 µM

**Q.** What about the IC50 [4, 11] of the same compound?
**A.** > 1000 µM

**Q.** And the IC50 [5, 12]?
**A.** > 1000 µM

**Q.** And the IC50 [6, 13]?
**A.** > 1000 µM

**Q.** And the IC50 [7, 14]?
**A.** > 1000 µM

**Q.** What does the source list for `COc1ccc2c(c1)c(CC(=O)O)c(C)n2C(=O)c1ccc(Cl)cc1` [INDOMETHACIN]?
**A.** IC50 [1, 8]: 190 µM; IC50 [2, 9]: > 1000 µM; IC50 [3, 10]: > 1000 µM; IC50 [4, 11]: > 1000 µM; IC50 [5, 12]: > 1000 µM; IC50 [6, 13]: > 1000 µM; IC50 [7, 14]: 20.4 µM

**Q.** Which results are given for `O=C(COc1cc(OCC(=O)NCCO)c(C(c2ccc(C(c3cc(Cl)c(OCC(=O)NCCO)cc3OCC(=O)NCCO)c3cc(Cl)c(OCC(=O)NCCO)cc3OCC(=O)NCCO)cc2)c2cc(Cl)c(OCC(=O)NCCO)cc2OCC(=O)NCCO)cc1Cl)NCCO`?
**A.** IC50 ([1]; k562): Not Active; IC50 ([2]; pc-3): Not Active; IC50 ([3]; hct-15): Not Active; IC50 ([4]; mcf7): Not Active; IC50 ([5]; cos-7): Not Active; IC50 ([6]; sk-lu-1): Not Active; IC50 ([7]; u-251): Not Active

**Q.** Which results are given for `O=C(COc1cc(OCC(=O)NCCOC(=O)CCCc2ccc(N(CCCl)CCCl)cc2)c(C(c2ccc(C(c3cc(Cl)c(OCC(=O)NCCOC(=O)CCCc4ccc(N(CCCl)CCCl)cc4)cc3OCC(=O)NCCOC(=O)CCCc3ccc(N(CCCl)CCCl)cc3)c3cc(Cl)c(OCC(=O)NCCOC(=O)CCCc4ccc(N(CCCl)CCCl)cc4)cc3OCC(=O)NCCOC(=O)CCCc3ccc(N(CCCl)CCCl)cc3)cc2)c2cc(Cl)c(OCC(=O)NCCOC(=O)CCCc3ccc(N(CCCl)CCCl)cc3)cc2OCC(=O)NCCOC(=O)CCCc2ccc(N(CCCl)CCCl)cc2)cc1Cl)NCCOC(=O)CCCc1ccc(N(CCCl)CCCl)cc1`?
**A.** IC50 [1, 8]: 51.4 µM; IC50 [2, 9]: 34 µM; IC50 [3, 10]: 201 µM; IC50 [4, 11]: 81 µM; IC50 [5, 12]: > 1000 µM; IC50 [6, 13]: 80 µM; IC50 [7, 14]: 24.3 µM
